According to patent publication US9328374B2, “Selective culture medium and method for detecting carbapenem-resistant bacteria in a test sample” (Institut National de la Sante et de la Recherche Medicale …, priority 2011, dated 2016):

What was measured:
E. coli = test: MIC of imipenem, ertapenem and meropenem; type: cell-based, Escherichia coli
C. koseri = test: MIC of imipenem, ertapenem and meropenem; type: cell-based
enterobacterial isolates = test: MIC of imipenem, ertapenem and meropenem (groups of isolates, other species); type: cell-based, Enterobacteriaceae
E. cloacae = test: MIC of imipenem, ertapenem and meropenem; type: cell-based, Enterobacter cloacae
C. freundii = test: MIC of imipenem, ertapenem and meropenem; type: cell-based, Citrobacter freundii

C[C@@H](O)[C@H]1C(=O)N2C(C(=O)O)=C(SCCN=CN)C[C@H]12 [IPM, imipenem]
MIC (E. coli; strain E. coli 1034, TEM-1 + SHV-38, non-carbapenemase producer): 0.19 µg/mL
MIC (E. coli; strain E. coli 1048, TEM-1 + SHV-2a, non-carbapenemase producer): 0.19 µg/mL
MIC (E. coli; strain E. coli 10121, CTX-M-2, non-carbapenemase producer): 0.19 µg/mL
MIC (E. coli; strain E. coli AME, OXA-48 + CTX-M-24): 0.25 µg/mL
MIC (E. coli; strain E. coli BON, OXA-48 + TEM-1 + CTX-M-24): 0.38 µg/mL
MIC (E. coli; strain E. coli BOU, OXA-48 + CTX-M-15): 0.5 µg/mL
MIC (E. coli; strain E. coli ECA, ACC-1, non-carbapenemase producer): 0.12 µg/mL
MIC (E. coli; strain E. coli EVB, VEB-1, non-carbapenemase producer): 0.12 µg/mL
MIC (E. coli; strain E. coli FOR, CTX-M-15, non-carbapenemase producer): 0.12 µg/mL
MIC (E. coli; strain E. coli HB4, (OmpC-, OmpF-), non-carbapenemase producer): 0.12 µg/mL
MIC (E. coli; strain E. coli JAP, IMP-1): 0.5 µg/mL
MIC (E. coli; strain E. coli MAR, Overexpressed AmpC, non-carbapenemase producer): 16 µg/mL
MIC (E. coli; strain E. coli MET, Chromosome-encoded extended-spectrum cephalosporinase, non-carbapenemase producer): 0.12 µg/mL
MIC (E. coli; strain E. coli ROB, OXA-48): 0.5 µg/mL
MIC (E. coli; strain E. coli SYD, CMY-2, non-carbapenemase producer): 0.12 µg/mL
MIC (C. koseri; C. koseri ROU, OXA-48): 0.38 µg/mL
MIC (C. koseri; C. koseri VER (OXA-48)): 0.75 µg/mL
MIC (C. koseri; C. koseri VER, OXA-48): 0.75 µg/mL
MIC (C. koseri; strain C. koseri VER, OXA-48): 0.75 µg/mL
MIC (enterobacterial isolates; S. marcescens 0911033, IMP-1): >32 µg/mL
MIC (enterobacterial isolates; S. marcescens 1008091, VIM-1+ CTX-M-15): >32 µg/mL
MIC (enterobacterial isolates; S. marcescens C7052, KPC-2 + TEM-1 + SHV-12): >32 µg/mL
MIC (enterobacterial isolates; S. marcescens D6403, KPC-2 + TEM-1): >32 µg/mL
MIC (E. cloacae; E. cloacae 501, OXA-48 + TEM-1 + CTX-M-15): 1 µg/mL
MIC (E. cloacae; E. cloacae 1012, TEM-1 + SHV-12, non-carbapenemase producer): 0.19 µg/mL
MIC (E. cloacae; E. cloacae 1019, TEM-1, non-carbapenemase producer, overexpressed AmpC): 0.25 µg/mL
MIC (E. cloacae; E. cloacae 1027, TEM-1 + CTX-M-15, non-carbapenemase producer): 0.19 µg/mL
MIC (E. cloacae; E. cloacae 1072, TEM-1 + OXA-1, non-carbapenemase producer, overexpressed AmpC): 0.38 µg/mL
MIC (E. cloacae; E. cloacae 5434 (wild type)): 0.38 µg/mL
MIC (E. cloacae; E. cloacae 5434, (wild type), non-carbapenemase producer): 0.38 µg/mL
MIC (E. cloacae; E. cloacae 7725, (wild type), non-carbapenemase producer): 0.19 µg/mL
MIC (E. cloacae; E. cloacae 7746, (wild type), non-carbapenemase producer): 0.38 µg/mL
MIC (E. cloacae; E. cloacae 10111 (TEM-1 + CTX-M-15)): 0.5 µg/mL
MIC (E. cloacae; E. cloacae 10111, TEM-1 + CTX-M-15, non-carbapenemase producer, overexpressed AmpC): 0.5 µg/mL
MIC (E. cloacae; E. cloacae 1008029, VIM-1+ CTX-M-3): >32 µg/mL
MIC (E. cloacae; E. cloacae 1008079, IMP-1): 8 µg/mL
MIC (E. cloacae; E. cloacae 1008187, IMP-1 + CTX-M-15): 8 µg/mL
MIC (E. cloacae; E. cloacae (KPC-2)): 4 µg/mL
MIC (E. cloacae; E. cloacae ARF (overexpressed AmpC)): 0.12 µg/mL
MIC (E. cloacae; E. cloacae ARF, Overexpressed AmpC, non-carbapenemase producer): 0.12 µg/mL
MIC (E. cloacae; E. cloacae AZA (overexpressed AmpC)): 0.12 µg/mL
MIC (E. cloacae; E. cloacae AZA, Overexpressed AmpC, non-carbapenemase producer): 0.12 µg/mL
MIC (E. cloacae; E. cloacae BEU, OXA-48 + TEM-1 + CTX-M-15 + SHV-12): 0.5 µg/mL
MIC (E. cloacae; E. cloacae BLA (overexpressed AmpC)): 0.12 µg/mL
MIC (E. cloacae; E. cloacae BLA, Overexpressed AmpC, non-carbapenemase producer): 0.12 µg/mL
MIC (E. cloacae; E. cloacae CFVL, KPC-2 + TEM-3): 4 µg/mL
MIC (E. cloacae; E. cloacae CLO (CTX-M-15)): 0.12 µg/mL
MIC (E. cloacae; E. cloacae CLO, CTX-M-15, non-carbapenemase producer): 0.12 µg/mL
MIC (E. cloacae; E. cloacae CON (overexpressed AmpC)): 0.12 µg/mL
MIC (E. cloacae; E. cloacae CON, Overexpressed AmpC, non-carbapenemase producer): 0.25 µg/mL
MIC (E. cloacae; E. cloacae CVB (VEB-1)): 0.12 µg/mL
MIC (E. cloacae; E. cloacae CVB, VEB-1, non-carbapenemase producer): 0.12 µg/mL
MIC (E. cloacae; E. cloacae HMG, KPC-2 + TEM-1): 24 µg/mL
MIC (E. cloacae; E. cloacae HPTU (KPC-2 + TEM-1 + SHV-11)): 2 µg/mL
MIC (E. cloacae; E. cloacae HPTU, KPC-2 + TEM-1 + SHV-11): 2 µg/mL
MIC (E. cloacae; E. cloacae IR38 (NDM-1 + CTX-M-15)): 2 µg/mL
MIC (E. cloacae; E. cloacae IR38, NDM-1 + CTX-M-15): 2 µg/mL
MIC (E. cloacae; E. cloacae KAR, VIM-1+ SHV-70): 1 µg/mL
MIC (E. cloacae; E. cloacae TAW (IMP-8 + SHV-12)): 0.75 µg/mL
MIC (E. cloacae; E. cloacae TAW, IMP-8 + SHV-12): 0.75 µg/mL
MIC (E. cloacae; E. cloacae TUR (OXA-48 + SHV-5)): 0.5 µg/mL
MIC (E. cloacae; E. cloacae TUR, OXA-48 + SHV-5): 0.5 µg/mL
MIC (E. cloacae; E. cloacae TWA, IMP-8): 1.5 µg/mL
MIC (E. cloacae; strain E. cloacae 10111, TEM-1 + CTX-M-15, non-carbapenemase producer): 0.5 µg/mL
MIC (E. cloacae; strain E. cloacae BLA, Overexpressed AmpC, non-carbapenemase producer): 0.12 µg/mL
MIC (E. cloacae; strain E. cloacae CLO, CTX-M-15, non-carbapenemase producer): 0.12 µg/mL
MIC (E. cloacae; strain E. cloacae CON, Overexpressed AmpC, non-carbapenemase producer): 0.12 µg/mL
MIC (E. cloacae; strain E. cloacae CVB, VEB-1, non-carbapenemase producer): 0.12 µg/mL
MIC (E. cloacae; strain E. cloacae HPTU, KPC-2 + TEM-1 + SHV-11): 2 µg/mL
MIC (E. cloacae; strain E. cloacae TAW, IMP-8 + SHV-12): 0.75 µg/mL
MIC (E. cloacae; strain E. cloacae TUR, OXA-48 + SHV-5): 0.5 µg/mL
MIC (C. freundii; C. freundii 1003, CTX-M-15 + TEM-1, non-carbapenemase producer): 0.38 µg/mL
MIC (C. freundii; C. freundii 7767 (wild type)): 0.25 µg/mL
MIC (C. freundii; C. freundii 7767, (wild type), non-carbapenemase producer): 0.25 µg/mL
MIC (C. freundii; C. freundii 10107 (TEM-1 + SHV-12)): 0.38 µg/mL
MIC (C. freundii; C. freundii 10107, TEM-1 + SHV-12, non-carbapenemase producer): 0.38 µg/mL
MIC (C. freundii; C. freundii 10135 (CTX-M-15)): 0.38 µg/mL
MIC (C. freundii; C. freundii 10135, CTX-M-15, non-carbapenemase producer): 0.38 µg/mL
MIC (C. freundii; C. freundii MAU (Overexpressed AmpC + TEM-3)): 1 µg/mL
MIC (C. freundii; C. freundii MAU, Overexpressed AmpC + TEM-3, non-carbapenemase producer): 1 µg/mL
MIC (C. freundii; C. freundii STE (NDM-1 + OXA-1 + OXA-9 + OXA-10 + CTX-M-15 + TEM-1)): >32 µg/mL
MIC (C. freundii; C. freundii STE, NDM-1 + TEM-1 + CTX-M-15 + VIM-4 + OXA-1 + OXA-9 + OXA-10 + OXA-181): >32 µg/mL
MIC (C. freundii; strain C. freundii 10107, TEM-1 + SHV-12, non-carbapenemase producer): 0.38 µg/mL
MIC (C. freundii; strain C. freundii 10135, CTX-M-15, non-carbapenemase producer): 0.38 µg/mL
MIC (C. freundii; strain C. freundii MAU, Overexpressed AmpC + TEM-3, non-carbapenemase producer): 1 µg/mL
